Data as given in the supplement of paper PMC4862054.

How the values were obtained:
Conditions in all cases: incubation time: 72 h
MFM-223 [1] = test: normalised response (% of control), CellTiter-Glo; higher = more viable cells (100 = DMSO, 0 = benzethonium chloride kill control)
In short: (§1)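 For each plate, 0.1 % DMSO was set to 100 and a positive kill control to 0. Breast cancer cell lines (20 µl suspension) were seeded into 384-well plates already holding compound at 5 concentrations in 10-fold steps over a 10,000-fold range chosen per compound, and incubated for 72 h. CellTox Green fluorescence at 485/520 nm was read before CellTiter-Glo luminescence, which followed 10 min at room temperature. Each value is the normalised signal at one concentration.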

CAL-148 [2] = test: as above
In short: as §1

CAL-85-1 [3] = test: as above
In short: as §1

HDQ-P1 [4] = test: as above
In short: as §1

BT-474 [5] = test: as above
In short: as §1

DU-4475 [6] = test: as above
In short: as §1

CAL-120 [7] = test: as above
In short: as §1

HCC1937 [8] = test: as above
In short: as §1

HCC1599 [9] = test: as above
In short: as §1

MDA-MB-436 [10] = test: as above
In short: as §1

SK-BR-3 [11] = test: as above
In short: as §1

MDA-MB-231 [12] = test: as above
In short: as §1

MCF-10A = test: as above
In short: as §1

MDA-MB-453 [13] = test: as above
In short: as §1

HCC1143 [14] = test: as above
In short: as §1

BT-549 [15] = test: as above
In short: as §1

Hs578T [16] = test: as above
In short: as §1

MDA-MB-468 [17] = test: as above
In short: as §1

CAL-51 [18] = test: as above
In short: as §1

MFM-223 [19] = test: normalised viability (% of control), CellTiter-Blue; higher = more viable cells (100 = DMSO, 0 = benzethonium chloride kill control)
Experimental: (§2)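 DSRT, CellTiter-Blue viability, 72 h incubation. Signal is normalised to DMSO and benzethonium chloride controls. Value is the normalised response at dose 1.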

CAL-148 [20] = test: as above
Experimental: as §2

CAL-85-1 [21] = test: as above
Experimental: as §2

HDQ-P1 [22] = test: as above
Experimental: as §2

BT-474 [23] = test: as above
Experimental: as §2

DU-4475 [24] = test: as above
Experimental: as §2

CAL-120 [25] = test: as above
Experimental: as §2

HCC1937 [26] = test: as above
Experimental: as §2

HCC1599 [27] = test: as above
Experimental: as §2

MDA-MB-436 [28] = test: as above
Experimental: as §2

SK-BR-3 [29] = test: as above
Experimental: as §2

MDA-MB-231 [30] = test: as above
Experimental: as §2

MDA-MB-453 [31] = test: as above
Experimental: as §2

HCC1143 [32] = test: as above
Experimental: as §2

BT-549 [33] = test: as above
Experimental: as §2

Hs578T [34] = test: as above
Experimental: as §2

MDA-MB-468 [35] = test: as above
Experimental: as §2

CAL-51 [36] = test: as above
Experimental: as §2

CAL-148 [37] = test: normalised viability (% of control), CellTiter-Blue; higher = more viable cells (about 100 = DMSO control)
Experimental: (§3)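 DSRT, CellTiter-Blue viability, 72 h incubation. Signal is normalised to DMSO and benzethonium chloride controls. Value is the normalised response at dose 9.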

CAL-85-1 [38] = test: as above
Experimental: as §3

HDQ-P1 [39] = test: as above
Experimental: as §3

DU-4475 [40] = test: as above
Experimental: as §3

MDA-MB-453 [41] = test: as above
Experimental: as §3

CAL-51 [42] = test: as above
Experimental: as §3

**Q.** Which results are given for `COc1cccc2c1C(=O)c1c(O)c3c(c(O)c1C2=O)C[C@@](O)(C(=O)CO)C[C@@H]3O[C@H]1C[C@H](N)[C@H](O)[C@H](C)O1` [Doxorubicin] (0.1 nM)?
**A.** normalised response (MFM-223 [1]): 104%; normalised response (CAL-148 [2]): 103%; normalised response (CAL-85-1 [3]): 105%; normalised response (HDQ-P1 [4]): 102%; normalised response (BT-474 [5]): 107%; normalised response (DU-4475 [6]): 104%; normalised response (CAL-120 [7]): 100%; normalised response (HCC1937 [8]): 101%; normalised response (HCC1599 [9]): 119%; normalised response (MDA-MB-436 [10]): 101%; normalised response (SK-BR-3 [11]): 107%; normalised response (MDA-MB-231 [12]): 105%; normalised response (MCF-10A): 98.8%; normalised response (MDA-MB-453 [13]): 120%; normalised response (HCC1143 [14]): 102%; normalised response (BT-549 [15]): 105%; normalised response (Hs578T [16]): 101%; normalised response (MDA-MB-468 [17]): 103%; normalised response (CAL-51 [18]): 99.3%; normalised viability (MFM-223 [19]): 95.6%; normalised viability (CAL-148 [20]): 97.8%; normalised viability (CAL-85-1 [21]): 84.6%; normalised viability (HDQ-P1 [22]): 98.5%; normalised viability (BT-474 [23]): 79.6%; normalised viability (DU-4475 [24]): 102%; normalised viability (CAL-120 [25]): 86.9%; normalised viability (HCC1937 [26]): 86.4%; normalised viability (HCC1599 [27]): 82.8%; normalised viability (MDA-MB-436 [28]): 112%; normalised viability (SK-BR-3 [29]): 90.3%; normalised viability (MDA-MB-231 [30]): 96.8%; normalised viability (MDA-MB-453 [31]): 102%; normalised viability (HCC1143 [32]): 91.2%; normalised viability (BT-549 [33]): 95%; normalised viability (Hs578T [34]): 110%; normalised viability (MDA-MB-468 [35]): 104%; normalised viability (CAL-51 [36]): 102%

**Q.** `CN1CCC(COc2cnc(-c3cccc(Cn4nc(-c5cccc(C#N)c5)ccc4=O)c3)nc2)CC1` (10000 nM) was tested. Which normalised viability (CAL-148 [37]) did it give?
**A.** 25.8%

**Q.** What about the normalised viability (CAL-85-1 [38]) of the same molecule?
**A.** 6.29%

**Q.** What about the normalised viability (HDQ-P1 [39]) of the same molecule?
**A.** 4.94%

**Q.** And the normalised viability (DU-4475 [40])?
**A.** 2.2%

**Q.** And the normalised viability (MDA-MB-453 [41])?
**A.** 3.23%

**Q.** And the normalised viability (CAL-51 [42])?
**A.** 6.25%

**Q.** Which normalised viability (MFM-223 [19]) does the source give for `COc1cc(Nc2ncc3c(n2)-c2ccc(Cl)cc2C(c2c(F)cccc2OC)=NC3)ccc1C(=O)O` [MLN8237] (1 nM) here?
**A.** 88.5%

**Q.** And the normalised viability (CAL-148 [20])?
**A.** 102%

**Q.** And the normalised viability (CAL-85-1 [21])?
**A.** 95.7%

**Q.** What about the normalised viability (HDQ-P1 [22]) of the same molecule?
**A.** 88.2%

**Q.** And the normalised viability (BT-474 [23])?
**A.** 109%

**Q.** And the normalised viability (DU-4475 [24])?
**A.** 101%

**Q.** And the normalised viability (CAL-120 [25])?
**A.** 92.1%

**Q.** What about the normalised viability (HCC1937 [26]) of the same molecule?
**A.** 101%

**Q.** And the normalised viability (HCC1599 [27])?
**A.** 114%

**Q.** What about the normalised viability (MDA-MB-436 [28]) of the same molecule?
**A.** 119%

**Q.** And the normalised viability (SK-BR-3 [29])?
**A.** 103%

**Q.** And the normalised viability (MDA-MB-231 [30])?
**A.** 109%

**Q.** And the normalised viability (MDA-MB-453 [31])?
**A.** 93.8%

**Q.** What about the normalised viability (HCC1143 [32]) of the same molecule?
**A.** 96.3%

**Q.** And the normalised viability (BT-549 [33])?
**A.** 115%

**Q.** And the normalised viability (Hs578T [34])?
**A.** 99.4%

**Q.** And the normalised viability (MDA-MB-468 [35])?
**A.** 105%

**Q.** And the normalised viability (CAL-51 [36])?
**A.** 99.7%

**Q.** `COc1cc(Nc2ncc3c(n2)-c2ccc(Cl)cc2C(c2c(F)cccc2OC)=NC3)ccc1C(=O)O` [MLN8237] (10000 nM) was tested. Which normalised viability (CAL-148 [37]) did it give?
**A.** 26.2%

**Q.** What about the normalised viability (CAL-85-1 [38]) of the same molecule?
**A.** 56.3%

**Q.** What about the normalised viability (HDQ-P1 [39]) of the same molecule?
**A.** 40.9%

**Q.** What about the normalised viability (DU-4475 [40]) of the same molecule?
**A.** 21.9%

**Q.** And the normalised viability (MDA-MB-453 [41])?
**A.** 44.8%

**Q.** And the normalised viability (CAL-51 [42])?
**A.** 18.8%

**Q.** Which normalised viability (CAL-148 [37]) does the source give for `CN(C)C/C=C/C(=O)Nc1cc2c(Nc3ccc(F)c(Cl)c3)ncnc2cc1O[C@H]1CCOC1` [Afatinib] (10000 nM) here?
**A.** 40.7%

**Q.** And the normalised viability (CAL-85-1 [38])?
**A.** 13.6%

**Q.** What about the normalised viability (HDQ-P1 [39]) of the same molecule?
**A.** 4.6%

**Q.** What about the normalised viability (DU-4475 [40]) of the same molecule?
**A.** 67.8%

**Q.** What about the normalised viability (MDA-MB-453 [41]) of the same molecule?
**A.** 14.4%

**Q.** And the normalised viability (CAL-51 [42])?
**A.** 50.6%

**Q.** How did the normalised viability (CAL-148 [37]) turn out when `CO[C@H]1C[C@@H]2CC[C@@H](C)[C@@](O)(O2)C(=O)C(=O)N2CCCC[C@H]2C(=O)O[C@H]([C@H](C)C[C@@H]2CC[C@@H](OC(=O)C(C)(CO)CO)[C@H](OC)C2)CC(=O)[C@H](C)/C=C(\C)[C@@H](O)[C@@H](OC)C(=O)[C@H](C)C[C@H](C)/C=C/C=C/C=C/1C` [Temsirolimus] (1000 nM) was run?
**A.** 36.1%

**Q.** What about the normalised viability (CAL-85-1 [38]) of the same molecule?
**A.** 57.7%

**Q.** And the normalised viability (HDQ-P1 [39])?
**A.** 80.6%

**Q.** And the normalised viability (DU-4475 [40])?
**A.** 49.6%

**Q.** And the normalised viability (MDA-MB-453 [41])?
**A.** 22.8%

**Q.** What about the normalised viability (CAL-51 [42]) of the same molecule?
**A.** 32.6%
